For 24 compounds, IC50, Relative potency and ED50 results are on record in ChEMBL document CHEMBL1129853, “Design and biological evaluation of a series of thiophene-based 3-hydroxy-3-methylglutaryl coenzyme a reductase inhibitors” (Bioorg Med Chem Lett, 1997).

Experiment [1] concerns the target T1, 3-hydroxy-3-methylglutaryl-coenzyme A reductase (Rattus norvegicus, UniProt P51639).
T1 sequence (P51639 whole entry): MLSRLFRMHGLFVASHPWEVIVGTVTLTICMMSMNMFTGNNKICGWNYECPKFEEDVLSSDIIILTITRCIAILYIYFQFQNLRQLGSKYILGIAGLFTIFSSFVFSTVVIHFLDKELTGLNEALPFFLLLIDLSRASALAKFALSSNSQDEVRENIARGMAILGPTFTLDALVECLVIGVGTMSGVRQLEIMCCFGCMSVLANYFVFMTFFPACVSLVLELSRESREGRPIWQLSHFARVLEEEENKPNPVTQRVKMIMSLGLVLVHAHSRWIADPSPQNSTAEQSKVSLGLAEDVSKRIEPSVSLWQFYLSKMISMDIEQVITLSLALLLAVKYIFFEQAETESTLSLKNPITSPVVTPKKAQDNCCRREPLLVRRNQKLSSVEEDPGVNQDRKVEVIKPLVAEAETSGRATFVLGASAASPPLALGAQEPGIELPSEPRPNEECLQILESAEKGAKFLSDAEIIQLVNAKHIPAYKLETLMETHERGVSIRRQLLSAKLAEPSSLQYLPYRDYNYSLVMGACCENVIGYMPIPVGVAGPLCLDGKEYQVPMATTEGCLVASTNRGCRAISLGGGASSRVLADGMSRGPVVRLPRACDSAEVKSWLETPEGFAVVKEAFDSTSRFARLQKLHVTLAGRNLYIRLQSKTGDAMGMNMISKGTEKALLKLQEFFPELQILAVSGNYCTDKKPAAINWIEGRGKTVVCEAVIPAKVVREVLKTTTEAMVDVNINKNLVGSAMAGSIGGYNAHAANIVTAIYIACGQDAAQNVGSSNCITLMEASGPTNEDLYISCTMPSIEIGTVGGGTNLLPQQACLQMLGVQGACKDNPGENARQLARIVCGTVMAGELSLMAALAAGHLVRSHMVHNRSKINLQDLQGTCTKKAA
Description: Tested in vitro for the HMG-CoA reductase inhibitory activity in a microsomal preparation. The format is microsomes, Microsome.

The target of experiment [2] is T2, 3-hydroxy-3-methylglutaryl-coenzyme A reductase (Rattus norvegicus) (UniProt P51639).
T2 sequence (whole entry): T1 sequence (P51639 whole entry)
The experiment is described as follows: Tested in vitro for relative potency against HMG-CoA reductase in a microsomal preparation (relative to compactin =1). The format is microsomes. To be noted: Microsome.

In experiment [3] the test system is Rattus norvegicus. The experiment is described as follows: Tested in vivo for the concentration required to produce 50% inhibition of the incorporation of [14C]acetate into cholesterol. The format is functional.
In experiment [4] the test system is Rattus norvegicus. The experiment is described as follows: Tested in vivo for the concentration required to produce relative potency of the incorporation of [14C]acetate into cholesterol (relative to compactin=1). The format is functional.

In the case of `CC(C)c1sc(C2CCCC2)c(-c2ccc(F)cc2)c1/C=C/[C@@H](O)C[C@@H](O)CC(=O)O`, in experiment [1], the IC50 (as a rule, the concentration needed to halve the response being measured) worked out at 570 nM. In addition, the Relative potency in experiment [2] came to 2.
Take `CC(C)c1sc(-c2ccccc2)c(-c2cccc(F)c2)c1/C=C/[C@@H](O)C[C@@H](O)CC(=O)O`: 49 nM corresponded to half-maximal inhibition in experiment [1] (IC50). Besides, the Relative potency in experiment [2] came out at 23.
For the compound `Cc1sc(C(C)C)c(/C=C/[C@@H](O)C[C@@H](O)CC(=O)[O-])c1-c1ccccc1.[Na+]`, the ED50 (as a rule, the dose at which the effect has come halfway, by size or by number of responders) in experiment [3] came to 0.19 mg/kg. This compound yielded an IC50 in experiment [1] of 94 nM. In addition, the Relative potency in experiment [2] came out at 12; in experiment [4], 21.
In experiment [1], `CC(C)c1sc(-c2ccccc2)c(-c2cccs2)c1/C=C/[C@@H](O)C[C@@H](O)CC(=O)O` showed a concentration for half-maximal inhibition (IC50) of 1420 nM. In experiment [2], this compound came in with a Relative potency of 0.8.
In experiment [1], `CC(C)c1sc(-c2ccccc2)c(-c2ccccc2F)c1/C=C/[C@@H](O)C[C@@H](O)CC(=O)O` registered an IC50 of 233 nM. Besides, in experiment [2], the Relative potency amounted to 4.9.
For `CC(C)c1sc(-c2ccccc2)c(-c2ccccc2)c1/C=C/[C@@H](O)C[C@@H](O)CC(=O)[O-].[Na+]`, it took a dose of 0.17 mg/kg to reach the 50% effect level in experiment [3] (ED50). The IC50 in experiment [1] was 26 nM. Also, the Relative potency is 44 in experiment [2] and 24 in experiment [4].
Take `CC(C)c1sc(-c2ccccc2)c(C2CCCCC2)c1/C=C/[C@@H](O)C[C@@H](O)CC(=O)[O-].[Na+]`: in experiment [3], the ED50 came out at 0.57 mg/kg. Besides, in experiment [1], the IC50 amounted to 202 nM. Besides, the Relative potency in experiment [2] stood at 5.7; in experiment [4], 7.1.
The compound `CC(C)c1sc(-c2ccccc2)c(-c2ccc(-c3ccccc3)cc2)c1/C=C/[C@@H](O)C[C@@H](O)CC(=O)O` registered an IC50 in experiment [1] greater than 10000 nM. The same compound returned a Relative potency in experiment [2] of less than 0.1.
`CC[C@H](C)C(=O)O[C@H]1CCC=C2C=C[C@H](C)[C@H](CC[C@@H]3C[C@@H](O)CC(=O)O3)[C@H]21` [MEVASTATIN]: the ED50 in experiment [3] amounted to 4.02 mg/kg. Also, in experiment [1], the IC50 turned out to be 1150 nM. The Relative potency in experiment [2] and in experiment [4] was 1 in each case.
In turn, `COCCOCc1sc(C(C)C)c(/C=C/[C@@H](O)C[C@@H](O)CC(=O)O)c1-c1ccc(F)cc1` returned an IC50 in experiment [1] of 206 nM. The compound further yielded a Relative potency in experiment [2] of 5.6.
`CC(C)c1sc(-c2ccccc2)c(-c2ccc(F)cc2)c1/C=C/[C@@H](O)C[C@@H](O)CC(=O)[O-].[Na+]` displayed an ED50 in experiment [3] of 0.11 mg/kg. Further, the IC50 in experiment [1] was 4.4 nM. Also, the Relative potency in experiment [2] stood at 261; in experiment [4], 37.
In the same order, the values of `CC(C)c1sc(-c2ccc(Cl)cc2)c(-c2ccc(F)cc2)c1/C=C/[C@@H](O)C[C@@H](O)CC(=O)[O-].[Na+]` are 0.64 mg/kg, 21 nM, 55 and 6.3.
`CCCCCCCCc1c(-c2ccccc2)sc(C(C)C)c1/C=C/[C@@H](O)C[C@@H](O)CC(=O)O`: the IC50 in experiment [1] is greater than 10000 nM. Also, the Relative potency in experiment [2] was less than 0.1.
`CC(C)c1sc(-c2ccccc2)c(-c2cccc(C(F)(F)F)c2)c1/C=C/[C@@H](O)C[C@@H](O)CC(=O)O` came in with an IC50 in experiment [1] of 2980 nM. In experiment [2], this compound returned a Relative potency of 0.4.
Consider `COc1ccc(-c2c(-c3ccccc3)sc(C(C)C)c2/C=C/[C@@H](O)C[C@@H](O)CC(=O)O)cc1`, for which it took 2430 nM to reach half-maximal inhibition in experiment [1] (IC50). The compound further yielded a Relative potency in experiment [2] of 0.5.
`COc1ccc(-c2sc(C(C)C)c(/C=C/[C@@H](O)C[C@@H](O)CC(=O)[O-])c2-c2ccc(F)cc2)cc1.[Na+]` came in with an ED50 in experiment [3] of 0.15 mg/kg. Moreover, in experiment [1], the IC50 was 6.3 nM. In addition, the results for the Relative potency in experiment [2] and in experiment [4] were 183 and 27, respectively.
Regarding `CCCCCCCCc1sc(C(C)C)c(/C=C/[C@@H](O)C[C@@H](O)CC(=O)O)c1-c1ccc(F)cc1`, the 50% inhibitory concentration (IC50) in experiment [1] is greater than 10000 nM. In addition, the Relative potency in experiment [2] was less than 0.1.
Take `CC[C@H](C)C(=O)O[C@H]1C[C@@H](C)C=C2C=C[C@H](C)[C@H](CC[C@@H]3C[C@@H](O)CC(=O)O3)[C@H]21` [LOVASTATIN]: the median effective dose (ED50) in experiment [3] worked out at 0.38 mg/kg. This compound returned an IC50 in experiment [1] of 530 nM. Moreover, the Relative potency came out at 2.2 in experiment [2] and 11 in experiment [4].
Consider `CC(C)=Cc1c(-c2ccccc2)sc(C(C)C)c1/C=C/[C@@H](O)C[C@@H](O)CC(=O)O`, for which the IC50 in experiment [1] amounted to 1000 nM. The compound further returned a Relative potency in experiment [2] of 1.2.
Compound `Cc1ccc(-c2sc(C(C)C)c(/C=C/[C@@H](O)C[C@@H](O)CC(=O)[O-])c2-c2ccc(F)cc2)cc1.[Na+]` showed an ED50 in experiment [3] of 0.32 mg/kg. The IC50 in experiment [1] is 9.7 nM. In addition, the Relative potency came to 119 in experiment [2] and 13 in experiment [4].
In turn, `CC(C)c1sc(-c2ccccc2)c(C2CCCC2)c1/C=C/[C@@H](O)C[C@@H](O)CC(=O)O` displayed a concentration for half-maximal inhibition (IC50) in experiment [1] of 417 nM. In addition, in experiment [2], the Relative potency was 2.8.
In experiment [3], `CC(C)=Cc1sc(C(C)C)c(/C=C/[C@@H](O)C[C@@H](O)CC(=O)[O-])c1-c1ccc(F)cc1.[Na+]` returned an ED50 of 0.11 mg/kg. The same compound showed an IC50 in experiment [1] of 15 nM. Besides, the Relative potency amounted to 77 in experiment [2] and 37 in experiment [4].
As for `CC(C)c1sc(CO)c(-c2ccc(F)cc2)c1/C=C/[C@@H](O)C[C@@H](O)CC(=O)O`, half-maximal inhibition in experiment [1] (IC50) was put at 325 nM. Also, the Relative potency in experiment [2] was 4.
For `CC(C)c1sc(C(C)C)c(-c2ccc(F)cc2)c1/C=C/[C@@H](O)C[C@@H](O)CC(=O)[O-].[Na+]`, the ED50 in experiment [3] worked out at 0.08 mg/kg. For the same compound, the IC50 in experiment [1] was found to be 26 nM. Also, the Relative potency in experiment [2] is 44; in experiment [4], 50.
